These results are taken from patent US20240209028A1, “CNP COMPOUNDS” (priority 2022, published 2024).

This test concerns the target T1, human natriuretic peptide receptor 2 (hNPR2) (Homo sapiens, UniProt P20594).
T1 construct: expressed in transfected cells; host or cells: HEK293 (ATCC CRL-1573), clone 35, co-transfected with pGloSensor-42F
T1 sequence (P20594 23-1047): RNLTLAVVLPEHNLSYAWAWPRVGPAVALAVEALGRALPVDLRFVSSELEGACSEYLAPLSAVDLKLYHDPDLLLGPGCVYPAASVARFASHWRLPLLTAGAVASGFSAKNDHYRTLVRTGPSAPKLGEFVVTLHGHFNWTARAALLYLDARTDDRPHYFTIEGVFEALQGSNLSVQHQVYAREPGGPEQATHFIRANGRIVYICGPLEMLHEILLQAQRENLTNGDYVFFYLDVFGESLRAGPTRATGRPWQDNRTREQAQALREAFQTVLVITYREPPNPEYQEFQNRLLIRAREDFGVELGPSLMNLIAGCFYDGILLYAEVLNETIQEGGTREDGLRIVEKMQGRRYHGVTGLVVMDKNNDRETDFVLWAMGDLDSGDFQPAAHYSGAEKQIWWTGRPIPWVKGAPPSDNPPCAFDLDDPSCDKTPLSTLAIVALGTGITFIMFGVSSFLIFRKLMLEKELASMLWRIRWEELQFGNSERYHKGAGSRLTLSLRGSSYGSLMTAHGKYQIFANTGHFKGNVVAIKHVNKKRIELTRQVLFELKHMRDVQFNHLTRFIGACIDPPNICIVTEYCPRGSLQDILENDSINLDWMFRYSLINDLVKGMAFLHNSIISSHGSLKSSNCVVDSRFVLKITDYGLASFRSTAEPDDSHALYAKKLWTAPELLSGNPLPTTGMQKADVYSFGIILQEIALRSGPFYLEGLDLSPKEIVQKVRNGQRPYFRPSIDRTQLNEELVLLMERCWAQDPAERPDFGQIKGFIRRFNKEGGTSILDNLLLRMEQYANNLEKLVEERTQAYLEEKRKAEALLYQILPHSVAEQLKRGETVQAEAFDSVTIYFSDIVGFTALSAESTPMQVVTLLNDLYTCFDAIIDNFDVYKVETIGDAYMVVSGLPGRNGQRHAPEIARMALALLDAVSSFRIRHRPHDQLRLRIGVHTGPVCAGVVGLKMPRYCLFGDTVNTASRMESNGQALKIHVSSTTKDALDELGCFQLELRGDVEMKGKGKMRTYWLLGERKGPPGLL
Kind of test: In vitro hNPR2 activity assay (cGMP GloSensor reporter, HEK293). The format is cell-based. Conditions: for hNPR2 0% HSA. [EC50% rel CNP]: potency relative to CNP22 (0065); for EC50: 0% HSA, HEK293-hNPR2/GloSensor cells. A digest of the protocol: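 Potency is the EC50 from a four-parameter logistic fit, also expressed relative to the in-plate CNP22 control (×100), with at least two replicates. Compounds (ten concentrations, […], HSA-free diluent with 1% OVA, 0.01% Tween20) were incubated 30 min at 37 °C on HEK293 cells co-expressing hNPR2 and a GloSensor cGMP luciferase. Luminescence detected with Bright-Glo.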

Each structure is given as a SMILES string. Starred links: 1 amine or outer side, 2 acyl side, 3 side chain; linkers in the order of their positions; H or OH if unused. Positions of bridges follow the written chain, without caps; N, C: chain ends. Residues, ends and D or L forms follow the SMILES beside them. *: point of attachment. C18 diacid = O=C(O)CCCCCCCCCCCCCCCCC(=O)*; γGlu = O=C(O)[C@H](CCC(=O)[*:2])N[*:1]; AEEA = NCCOCCOCC(=O)O

What is called EC50 is the concentration needed to bring the measured effect to its halfway point.

For `CC[C@H](C)[C@@H]1NC(=O)[C@H](CCCNC(=N)N)NC(=O)[C@H](CC(=O)O)NC(=O)[C@H](CC(C)C)NC(=O)[C@@H]2CCCN2C(=O)[C@H](CC(C)C)NC(=O)CNC(=O)[C@H](Cc2ccccc2)NC(=O)[C@@H](NC(=O)CNC(=O)[C@H](CCC(N)=O)NC(=O)[C@H](CO)NC(=O)[C@H](CC(C)C)NC(=O)CNC(=O)[C@H](CCCCN)NC(=O)[C@H](CCCCN)NC(=O)[C@H](CCC(N)=O)NC(=O)[C@H](C)NC(=O)CNC(=O)[C@H](CCCCN)NC(=O)[C@H](Cc2ccc(O)cc2)NC(=O)[C@H](CCCCN)NC(=O)[C@H](CCCNC(=N)N)NC(=O)[C@H](C)NC(=O)COCCOCCNC(=O)COCCOCCNC(=O)CC[C@H](NC(=O)CC[C@H](NC(=O)CC[C@H](NC(=O)CC[C@H](NC(=O)CCCCCCCCCCCCCCCCC(=O)O)C(=O)O)C(=O)O)C(=O)O)C(=O)O)CSSC[C@@H](C(=O)O)NC(=O)CNC(=O)[C@H](CC(C)C)NC(=O)CNC(=O)[C@H](CO)NC(=O)[C@H](CC(C)C)NC(=O)[C@H](CO)NC(=O)CNC1=O` [compound 1456] ({C18 diacid-γGlu-γGlu-γGlu-γGlu-AEEA-AEEA}-ARKYKGAQKKGLSQGCFGLPLDRIGSLSGLGC-OH; disulfide 16-32), the “hNPR2 0% HSA. [EC50% rel CNP]” value is 50.4%. On the same count and under the same terms, the figure for `CC[C@H](C)[C@@H]1NC(=O)[C@H](CCCNC(=N)N)NC(=O)[C@H](CC(=O)O)NC(=O)[C@H](CC(C)C)NC(=O)[C@@H]2CCCN2C(=O)[C@H](CC(C)C)NC(=O)CNC(=O)[C@H](Cc2ccccc2)NC(=O)[C@@H](NC(=O)CNC(=O)[C@H](CCCCN)NC(=O)[C@H](CO)NC(=O)[C@H](CC(C)C)NC(=O)CNC(=O)[C@H](CCCCN)NC(=O)[C@H](CCCCN)NC(=O)[C@H](CCC(N)=O)NC(=O)[C@H](C)NC(=O)CNC(=O)[C@H](CCCCN)NC(=O)[C@H](Cc2ccc(O)cc2)NC(=O)CNC(=O)CNC(=O)CNC(=O)CC[C@H](NC(=O)CC[C@H](NC(=O)CC[C@H](NC(=O)CC[C@H](NC(=O)CCCCCCCCCCCCCCCCC(=O)O)C(=O)O)C(=O)O)C(=O)O)C(=O)O)CSSC[C@@H](C(=O)O)NC(=O)CNC(=O)[C@H](CC(C)C)NC(=O)CNC(=O)[C@H](CO)NC(=O)[C@H](CC(C)C)NC(=O)[C@H](CO)NC(=O)CNC1=O` [compound 1388] ({C18 diacid-γGlu-γGlu-γGlu-γGlu}-GGGYKGAQKKGLSKGCFGLPLDRIGSLSGLGC-OH; disulfide 16-32) is 23.5%; for `CC[C@H](C)[C@@H]1NC(=O)[C@H](CCCNC(=N)N)NC(=O)[C@H](CC(=O)O)NC(=O)[C@H](CC(C)C)NC(=O)[C@@H]2CCCN2C(=O)[C@H](CC(C)C)NC(=O)CNC(=O)[C@H](Cc2ccccc2)NC(=O)[C@@H](NC(=O)CNC(=O)[C@H](CO)NC(=O)[C@H](CO)NC(=O)[C@H](CC(C)C)NC(=O)CNC(=O)[C@@H](NC(=O)[C@H](Cc2c[nH]cn2)NC(=O)[C@H](CCC(N)=O)NC(=O)[C@H](C)NC(=O)CNC(=O)[C@H](CCCCN)NC(=O)[C@H](Cc2ccc(O)cc2)NC(=O)COCCOCCNC(=O)COCCOCCNC(=O)CC[C@H](NC(=O)CCCCCCCCCCCCCCCCC(=O)O)C(=O)O)[C@@H](C)O)CSSC[C@@H](C(=O)O)NC(=O)CNC(=O)[C@H](CC(C)C)NC(=O)CNC(=O)[C@H](CO)NC(=O)[C@H](CC(C)C)NC(=O)[C@H](CO)NC(=O)CNC1=O` [compound 1305] ({C18 diacid-γGlu-AEEA-AEEA}-YKGAQHTGLSSGCFGLPLDRIGSLSGLGC-OH; disulfide 13-29) it is 8.7%.

With `CC[C@H](C)[C@@H]1NC(=O)[C@H](CCCNC(=N)N)NC(=O)[C@H](CCC(=O)O)NC(=O)[C@H](CC(C)C)NC(=O)[C@H](CCCCN)NC(=O)[C@H](CC(C)C)NC(=O)CNC(=O)[C@H](Cc2ccccc2)NC(=O)[C@@H](NC(=O)CNC(=O)[C@H](CCCCN)NC(=O)[C@H](CO)NC(=O)[C@H](CC(C)C)NC(=O)CNC(=O)[C@H](Cc2c[nH]cn2)NC(=O)[C@H](Cc2c[nH]cn2)NC(=O)[C@H](CCC(N)=O)NC(=O)[C@H](C)NC(=O)CNC(=O)[C@H](Cc2c[nH]cn2)NC(=O)[C@H](Cc2ccc(O)cc2)NC(=O)COCCOCCNC(=O)COCCOCCNC(=O)CC[C@H](NC(=O)CC[C@H](NC(=O)CCCCCCCCCCCCCCCCC(=O)O)C(=O)O)C(=O)O)CSSC[C@@H](C(=O)O)NC(=O)CNC(=O)[C@H](CC(C)C)NC(=O)CNC(=O)[C@H](CO)NC(=O)[C@H](CC(C)C)NC(=O)[C@H](CO)NC(=O)CNC1=O` [compound 1323] ({C18 diacid-γGlu-γGlu-AEEA-AEEA}-YHGAQHHGLSKGCFGLKLERIGSLSGLGC-OH; disulfide 13-29; C-terminus assumed), the response was half-maximal at 11.2 nM (EC50) and the “hNPR2 0% HSA. [EC50% rel CNP]” value stood at 0.8%. In the same order, the values of `CC[C@H](C)[C@@H]1NC(=O)[C@H](CCCNC(=N)N)NC(=O)[C@H](CC(=O)O)NC(=O)[C@H](CC(C)C)NC(=O)[C@H](CCCCN)NC(=O)[C@H](CC(C)C)NC(=O)CNC(=O)[C@H](Cc2ccccc2)NC(=O)[C@@H](NC(=O)CNC(=O)[C@H](CO)NC(=O)[C@H](CO)NC(=O)[C@H](CC(C)C)NC(=O)CNC(=O)[C@H](CCCCN)NC(=O)[C@H](CCC(=O)O)NC(=O)[C@H](CCC(N)=O)NC(=O)[C@H](C)NC(=O)CNC(=O)[C@H](CCCCN)NC(=O)[C@H](CCC(=O)O)NC(=O)COCCOCCNC(=O)COCCOCCNC(=O)CC[C@H](NC(=O)CCCCCCCCCCCCCCCCC(=O)O)C(=O)O)CSSC[C@@H](C(=O)O)NC(=O)CNC(=O)[C@H](CC(C)C)NC(=O)CNC(=O)[C@H](CO)NC(=O)[C@H](CC(C)C)NC(=O)[C@H](CO)NC(=O)CNC1=O` [compound 1230] ({C18 diacid-γGlu-AEEA-AEEA}-EKGAQEKGLSSGCFGLKLDRIGSLSGLGC-OH; disulfide 13-29) are 6.98 nM and 4.2%.

For `CC[C@H](C)[C@@H]1NC(=O)[C@H](CCCNC(=N)N)NC(=O)[C@H](CC(=O)O)NC(=O)[C@H](CC(C)C)NC(=O)[C@H](CCCCN)NC(=O)[C@H](CC(C)C)NC(=O)CNC(=O)[C@H](Cc2ccccc2)NC(=O)[C@@H](NC(=O)CNC(=O)[C@H](CCCCN)NC(=O)[C@H](CO)NC(=O)[C@H](CC(C)C)NC(=O)CNC(=O)[C@H](CCCCN)NC(=O)[C@H](CCC(=O)O)NC(=O)[C@H](CCC(N)=O)NC(=O)[C@H](C)NC(=O)CNC(=O)[C@H](Cc2c[nH]cn2)NC(=O)[C@H](Cc2ccc(O)cc2)NC(=O)COCCOCCNC(=O)COCCOCCNC(=O)CC[C@H](NC(=O)CCCCCCCCCCCCCCCCC(=O)O)C(=O)O)CSSC[C@@H](C(=O)O)NC(=O)CNC(=O)[C@H](CC(C)C)NC(=O)CNC(=O)[C@H](CO)NC(=O)[C@H](CC(C)C)NC(=O)[C@H](CO)NC(=O)CNC1=O` [compound 1237] ({C18 diacid-γGlu-AEEA-AEEA}-YHGAQEKGLSKGCFGLKLDRIGSLSGLGC-OH; disulfide 13-29), it took 1.95 nM to reach a half-maximal effect (EC50) and the “hNPR2 0% HSA. [EC50% rel CNP]” value worked out at 11.8%. For `CC[C@H](C)[C@@H]1NC(=O)[C@H](CCCNC(=N)N)NC(=O)[C@H](CCC(=O)O)NC(=O)[C@H](CC(C)C)NC(=O)[C@H](CCCCN)NC(=O)[C@H](CC(C)C)NC(=O)CNC(=O)[C@H](Cc2ccccc2)NC(=O)[C@@H](NC(=O)CNC(=O)[C@H](CCCCN)NC(=O)[C@H](CO)NC(=O)[C@H](CC(C)C)NC(=O)CNC(=O)[C@H](Cc2c[nH]cn2)NC(=O)[C@H](Cc2c[nH]cn2)NC(=O)[C@H](CCC(N)=O)NC(=O)[C@H](C)NC(=O)CNC(=O)[C@H](Cc2c[nH]cn2)NC(=O)[C@H](Cc2ccc(O)cc2)NC(=O)COCCOCCNC(=O)COCCOCCNC(=O)CC[C@H](NC(=O)CCCCCCCCCCCCCCCCC(=O)O)C(=O)O)CSSC[C@@H](C(=O)O)NC(=O)CNC(=O)[C@H](CC(C)C)NC(=O)CNC(=O)[C@H](CO)NC(=O)[C@H](CC(C)C)NC(=O)[C@H](CO)NC(=O)CNC1=O` [compound 1322] ({C18 diacid-γGlu-AEEA-AEEA}-YHGAQHHGLSKGCFGLKLERIGSLSGLGC-OH; disulfide 13-29; C-terminus assumed), in that order: 4.73 nM and 1.9%.
